Measurements published in patent publication US20240352145A1, “EFFICACY OF ANTI-TROP-2-SN-38 ANTIBODY DRUG CONJUGATES FOR THERAPY OF TUMORS RELAPSED/REFRACTORY TO CHECKPOINT INHIBITORS” (Immunomedics, Inc., priority 2016, published 2024).

What was measured:
rhTrop-2/TACSTD2 = biological target: T1, rhTrop-2/TACSTD2 (Homo sapiens, UniProt P09758); assay: Surface plasmon resonance (BIACORE), Trop-2; format: binding; conditions: for Kd: low-density Trop-2 chip, three independent runs, read-out: binding affinity (KD)
T1 construct: purchased Sino Biological, Inc
T1 sequence (P09758 27-323): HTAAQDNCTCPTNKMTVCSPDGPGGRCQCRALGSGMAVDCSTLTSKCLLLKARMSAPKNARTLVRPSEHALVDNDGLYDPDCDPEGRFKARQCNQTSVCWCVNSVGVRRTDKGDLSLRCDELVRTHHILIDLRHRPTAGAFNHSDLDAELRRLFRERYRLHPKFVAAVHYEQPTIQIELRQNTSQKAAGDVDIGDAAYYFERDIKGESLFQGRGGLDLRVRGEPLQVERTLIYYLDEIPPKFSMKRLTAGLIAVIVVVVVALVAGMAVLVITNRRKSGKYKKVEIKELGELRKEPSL
Description: (§1) Surface Plasmon Resonance Binding (BIACORE)—Briefly, rhTrop-2/TACSTD2 (Sino Biological, Inc.) or recombinant human neonatal receptor (FcRn), produced as described (Wang et al., 2011, Drug Metab Dispos 39:1469-77), was immobilized with an amine coupling kit (GE Healthcare; Cat. No. BR-1000-50) on a CM5 sensor chip (GE Healthcare; Cat. #BR-1000-12) following manufacturer's instructions for a low-density chip. […] Each set would make up a separate run on the BIACORE (BIACORE-X; Biacore Inc., Piscataway, NJ) and data were analyzed using BIAevaluation Software (Biacore Inc., v4.1). Analysis was performed with a 1:1 (Langmuir) Binding Model and Fit, using all five concentration points for each sample run to determine the best fit (lowest χ^2 value). The KDvalue was calculated using the formula KD=kd1/ka1, where kd1 is the dissociation rate-constant and ka1 is the association-rate constant.

CDC activity = format: cell-based
[1] = biological target: T2, recombinant human neonatal receptor (FcRn) (Homo sapiens, UniProt P55899); assay: Surface plasmon resonance (BIACORE), FcRn; format: binding; conditions: low-density FcRn chip, three independent runs
T2 construct: made in house
Description: as §1

p21^Waf1/Cip1 and p53 [2] = assay: Signaling events (p21Waf1/Cip1, p53) in Calu-3; format: cell-based, human
Description: (§2) Our initial studies examined the expression of 2 proteins involved in early signaling events (p21^Waf1/Cip1 and p53) and 1 late apoptotic event [cleavage of poly-ADP-ribose polymerase (PARP)] in vitro (not shown).

Capan-1 = assay: Combination 90Y-hPAM4 RAIT + ADC, Capan-1 xenograft; format: in vivo, mouse
Description: Objective responses occurred in most animals, but they were more robust in both of the combination groups as compared to each agent given alone. […] These studies provide the first evidence that combined radioimmunotherapy and ADC enhances efficacy at safe doses.

p21^Waf1/Cip1 and p53 [3] = assay: Signaling events (p21Waf1/Cip1, p53) in BxPC-3; format: cell-based, human
Description: as §2

BxPC-3 [4] = assay: ADCC activity of hRS7-ADC conjugates; format: cell-based, human; conditions: 33.3 nM; PBMC effector to target ratio 100:1
Description: PBMCs were purified from blood purchased from the Blood Center of New Jersey. A Trop-2-positive human pancreatic adenocarcinoma cell line (BxPC-3) was used as the target cell line with an effector to target ratio of 100:1.

BxPC-3 [5] = assay: dsDNA breaks, γH2AX induction in BxPC-3; format: cell-based, human; conditions: for Mean Fluorescence Intensity, γH2AX: untreated 2516 ± 191
Experimental: Assessment of Double-Stranded DNA Breaks In Vitro—For drug activity testing, BxPC-3 cells were seeded in 6-well plates at 5×10^5 cells/well and held at 37° C. overnight. […] The following morning, cells were trypsinized briefly, spun down, stained with Fixable Viability Stain 450 (BD Biosciences, San Jose, CA), washed with 1% BSA-PBS, and then fixed in 4% formalin for 15 min, washed again and permeabilized in 0.15% Triton-X100 in PBS for another 15 min. After washing twice with 1% BSA-PBS, cells were incubated with mouse anti-γH2AX-AF488 (EMD Millipore Corporation, Temecula, CA) for 45 min at 4° C. The signal intensity of γH2AX was measured by flow cytometry using a BD FACSCanto (BD Biosciences, San Jose, CA).

Trop-2 = biological target: T3, Trop-2 (Homo sapiens, UniProt P09758); assay: In vitro cell binding, multiple cell lines; set-up: endogenous in cells; host or cells: human cancer cell lines (ATCC)
T3 sequence (P09758 27-323): T1 sequence (P09758 27-323)
Experimental: In Vitro Cell Binding—LumiGLO Chemiluminescent Substrate System (KPL, Gaithersberg, MD) was used to detect antibody binding to cells. Briefly, cells were plated into a 96 black-well, flat-clear-bottom plate overnight. Antibodies were serially diluted 1:2 and added in triplicate, yielding a concentration range from 0.03 to 66.7 nM. After incubating for 1 h at 4° C., the media was removed and the cells washed with fresh cold media followed by the addition of a 1:20,000 dilution of goat-antihuman horseradish peroxidase-conjugated secondary antibody (Jackson Immunoresearch, West Grove, PA) for 1 h at 4° C. The plates were again washed before the addition of the LumiGLO reagent. Plates were read for luminescence using an Envision plate reader (Perkin Elmer, Boston MA). Data were analyzed by non-linear regression to determine the equilibrium dissociation constant (KD). Statistical comparisons of KD-values were made with Prism GraphPad Software (v4.03) (Advanced Graphics Software, Inc.; Encinitas, CA) using an F-Test on the best-fit curves for the data. Significance was set at P<0.05.

MDA-MB-468 = assay: ADCC LDH-release, MDA-MB-468; format: cell-based, human; conditions: for specific lysis (ADCC): MDA-MB-468, 33.3 nM, E:T 50:1, 4 h
Experimental: The next day, peripheral blood mononuclear effector cells (PBMCs) were freshly isolated from a donor and added to assigned wells on the reaction plate at an E:T ratio of 50:1. Acquisition of human PBMCs was done under the approval of the New England Institutional Review Board (Newton, MA). […] One set of wells received ADCC assay medium alone for background control and another set of wells received cells alone plus TritonX100 for maximum cells lysis control. The plate was incubated for 4 h at 37° C. After 4 h, target cell lysis was assessed by a homogenous fluorometric LDH release assay (Cyto Tox-One Homogenous Membrane Integrity Assay; Promega, Cat. G7891).
Data were analyzed by Microsoft Excel. Percent specific lysis was calculated as follows:
where: • Experimental: effector+target cells+antibody • Effector+Target Control: effector+target cells • Max. Lysis: target cells+Triton-X100 • Target Control: target cells only

T2 sequence (P55899 24-297 limits assumed): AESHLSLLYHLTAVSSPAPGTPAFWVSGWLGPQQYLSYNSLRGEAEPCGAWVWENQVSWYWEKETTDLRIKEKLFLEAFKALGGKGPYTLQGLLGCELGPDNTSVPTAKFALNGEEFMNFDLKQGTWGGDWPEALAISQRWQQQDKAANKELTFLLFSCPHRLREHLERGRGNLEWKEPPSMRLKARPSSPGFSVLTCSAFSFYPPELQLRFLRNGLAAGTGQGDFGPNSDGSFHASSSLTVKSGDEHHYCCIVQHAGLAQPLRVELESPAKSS
T2 sequence (P61769 21-119 partner): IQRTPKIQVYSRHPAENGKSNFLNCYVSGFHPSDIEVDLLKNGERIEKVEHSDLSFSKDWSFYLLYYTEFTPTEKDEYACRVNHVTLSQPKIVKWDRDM

Row | Substance | improvement in KD vs naked hRS7 (rhTrop-2/TACSTD2; BIACORE) [fold] | Kd (rhTrop-2/TACSTD2) [nM] | CDC activity (CDC activity) | Kd [1] [nM] | exposure time at which p53 upregulation is evident (p21^Waf1/Cip1 and p53 [2]) [h] | tumor-free mice after 20 weeks (Capan-1; 75 μCi 90Y-hPAM4 level, ADC alone, or their combination, n=10) | exposure time at which p53 upregulation is evident (p21^Waf1/Cip1 and p53 [3]) [h] | specific lysis (ADCC) (BxPC-3 [4]) | induction of γH2AX vs non-targeting control ADC (BxPC-3 [5]; BxPC-3, 30 min exposure) | Mean Fluorescence Intensity, γH2AX (BxPC-3 [5]; BxPC-3, 20 μg/ml for 30 min) | KD (Trop-2) | specific lysis (ADCC) (MDA-MB-468) [%] | loss of effector function (ADCC) (MDA-MB-468; three different cell lines) | anti-tumor activity of unconjugated antibodies (Capan-1; given alone) | Percent Positive, γH2AX (BxPC-3 [5]; BxPC-3, 20 μg/ml for 30 min, untreated 18.8 ± 6.3) [%]
1 | IMMU-132 | 2 | 0.26 ± 0.14 | no CDC activity | 192 ± 47.6 | ≤ 24 | 1 of 10 | ≤ 24 | no difference between hRS7-NEM and sacituzumab govitecan | greater than two-fold induction | 5349 ± 234 | sub-nanomolar range | 8.6±2.6 | 60-70% | – | –
2 | hRS7 IgG | – | 0.51 ± 0.04 | no CDC activity | 92.4 ± 5.7 | 48 | – | 48 | 8.5% | – | 2297 ± 18 | sub-nanomolar range | 29.8±2.6 | – | Neither unconjugated hPAM4 nor hRS7 antibodies had anti-tumor activity | 13.0 ± 0.6
